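All cell lines were grown in 96-well plates and treated with compound for 48 hours. Here, GI50 denotes the concentration required for 50% inhibition of growth. TGI: concentration producing complete growth inhibition.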 Peptide text beside a SMILES is read from it. * marks the point of attachment. X34 = O=C(c1ccc(-c2ccc(Cl)cc2Cl)o1)*
Assays:
Assay in all cases: inhibition of tumour cell growth, NCI panel, 48 h
[1] = test system: KM12 colon
[2] = test system: SF-295 CNS
[3] = test system: PC-3 prostate
[4] = test system: NCI-H226 lung
[5] = test system: NCI-H23 lung
[6] = test system: HOP-92 NSCLC
[7] = test system: U251 CNS
[8] = test system: M14 melanoma
[9] = test system: T-47D breast
[10] = test system: 786-0 renal
[11] = test system: SW-620 colon

Row | Structure (SMILES) | TGI [1] [µM] | TGI [2] [µM] | TGI [3] [µM] | TGI [4] [µM] | TGI [5] [µM] | TGI [6] [µM] | TGI [7] [µM] | TGI [8] [µM] | TGI [9] [µM] | TGI [10] [µM] | TGI [11] [µM] | GI50 [1] [µM] | GI50 [2] [µM] | GI50 [3] [µM] | GI50 [5] [µM] | GI50 [6] [µM] | GI50 [7] [µM] | GI50 [8] [µM] | GI50 [11] [µM]
1 | O=C1NC(=O)C(C(c2ccc([N+](=O)[O-])cc2)C2C(=O)NC(=O)NC2=O)C(=O)N1 | > 100 | > 100 | > 100 | > 100 | > 100 | > 100 | > 100 | > 100 | > 100 | > 100 | > 100 |  |  |  |  |  |  |  | 
2 | CN(CCNC(=O)c1nn(-c2ccc(Cl)cc2Cl)c2c1Cc1ccccc1-2)CCNC(=O)c1nn(-c2ccc(Cl)cc2Cl)c2c1Cc1ccccc1-2 | > 100 | 5.19 | > 100 |  | 30.2 | 4.88 | 7.27 | 3.46 | > 30.2 | 4.47 | 4.88 |  |  |  |  |  |  |  | 
3 | O=c1oc2cc(O)ccc2c2oc3cc(O)ccc3c12 | > 125 | > 125 |  | > 125 | > 125 | > 125 | 93.5 |  |  |  | > 125 |  |  |  |  |  |  |  | 
4 | CN(C)c1ccc(C2CC(=O)CC(c3ccc(N(C)C)cc3)C23C(=O)NC(=S)NC3=O)cc1 (stereo unspecified) | > 100 | > 100 | > 100 | > 100 | > 100 | > 100 | > 100 | > 100 | > 100 | > 100 | > 100 |  |  |  |  |  |  |  | 
5 | N#Cc1ccc([N+](=O)[O-])cc1NC(N)=S | > 100 | > 100 |  |  |  | > 100 | > 100 | > 100 |  |  | > 100 |  |  |  |  |  |  |  | 
6 | CN1c2c(nc(N)[nH]c2=O)NCC1CCNc1ccc(C(=O)NC(CCC(=O)O)C(=O)O)cc1 (stereo unspecified) | 2220 | 2260 | 1750 | 3050 | 3630 | 2900 | 2080 | 1770 | 4260 | 1840 | 1810 |  |  |  |  |  |  |  | 
7 | CC1=C[C@H]([C@H]2C=C(C)C(C(N)=O)=CN2Cc2c(Cl)cccc2Cl)N(Cc2c(Cl)cccc2Cl)C=C1C(N)=O | > 75 | > 75 | > 75 | > 75 | > 75 | 65.8 | > 75 | > 75 | > 75 | > 75 | > 75 |  |  |  |  |  |  |  | 
8 | O=C1CCCCN1 | > 1120 | > 1120 |  | > 1120 | > 1120 | > 1120 | > 1120 |  |  |  | > 1120 |  |  |  |  |  |  |  | 
9 | CC1=C(SCCO)C(=O)c2ccccc2C1=O | 26.8 | 32.8 | 25.1 | 29.1 | 30.4 | 3.72 | 26.1 | 27.6 | 20.5 |  | 33.1 |  |  |  |  |  |  |  | 
10 | c1ccc(SCCc2ccncc2)cc1 | > 100 | > 100 | > 100 | > 100 | > 100 | > 100 | > 100 | > 100 | > 100 | > 100 | > 100 |  |  |  |  |  |  |  | 
11 | O=S(=O)(O)c1cc(S(=O)(=O)O)c2c(N=Nc3ccc(S(=O)(=O)O)c4ccccc34)c(O)ccc2c1 | > 100 | > 100 | > 100 | > 100 | > 100 | > 100 | > 100 | > 100 | > 100 | > 100 | > 100 |  |  |  |  |  |  |  | 
12 | COc1nc2ccc(CNc3ccc(C(=O)NC(CCC(=O)O)C(=O)O)cc3)cc2nc1OC (stereo unspecified) | > 100 | > 100 | > 100 | > 100 | > 100 |  | > 100 | > 100 | > 100 |  | > 100 |  |  |  |  |  |  |  | 
13 | Nc1nc(SCCNC(=O)CCc2ccc(O)c(I)c2)nc2c1ncn2C1OC(CO)C(O)C1O (stereo unspecified) | > 100 | > 100 |  | > 100 | > 100 | > 100 | > 100 | > 100 |  |  | > 100 |  |  |  |  |  |  |  | 
14 | COc1cc2c3c(n(CCCn4cncn4)c(=O)c2cc1OC)-c1cc2c(cc1C3=O)OCO2 | > 100 | > 100 | > 100 | > 100 | 57.5 | 38.6 | 31.8 | > 100 | > 100 | > 49.3 | > 100 | > 100 | < 0.01 | 39.8 | 0.0906 | 0.935 | < 0.0449 | < 0.01 | 1.08
15 | CC(=O)OCC1=CC2OC(=O)C3=COC(OC4OC(CO)C(O)C(O)C4O)C1C32 (stereo unspecified) | > 100 | > 100 | > 100 | > 100 | > 100 | > 100 | > 100 | > 100 | > 100 | > 100 | > 100 |  |  |  |  |  |  |  | 
16 | CC(=O)OCCCCN1C(=O)CSc2ccccc21 | > 100 | > 100 | > 100 |  |  | > 100 | > 100 |  | > 100 |  | > 100 |  |  |  |  |  |  |  | 
17 | CC(ON1[C@](C)(c2ccccc2)CC[C@@]1(C)c1ccccc1)c1ccccc1 (stereo partly specified) | > 100 | > 100 | > 100 | > 100 | > 100 | > 100 | > 100 | > 100 | 87.3 | > 100 | > 100 |  |  |  |  |  |  |  | 

Row | Structure (SMILES) | TGI [1] [µM] | TGI [2] [µM] | TGI [3] [µM] | TGI [4] [µM] | TGI [5] [µM] | TGI [6] [µM] | TGI [7] [µM] | TGI [8] [µM] | TGI [9] [µM] | TGI [10] [µM] | TGI [11] [µM] | GI50 [1] [µM] | GI50 [2] [µM] | GI50 [3] [µM] | GI50 [5] [µM] | GI50 [6] [µM] | GI50 [7] [µM] | GI50 [8] [µM] | GI50 [11] [µM]
18 | CCOc1ccccc1Nc1ccc(N)cc1S(=O)(=O)O | > 100 | > 100 | > 100 | > 100 | > 100 | > 100 | > 100 | > 100 | > 100 | > 100 | > 100 |  |  |  |  |  |  |  | 
19 | O=Cc1ccccc1CCn1c(=O)c2cc3c(=O)n(CCc4ccccc4C=O)c(=O)c3cc2c1=O | > 100 | > 100 |  | > 100 | > 100 |  | > 100 |  |  |  | > 100 |  |  |  |  |  |  |  | 
20 | COC(=O)C(CC(C)C)NC(=O)C(Cc1ccccc1)NC(=O)C1CCCN1C(=O)C(CO)NC(=O)c1ccc(-c2ccc(Cl)cc2Cl)o1 (stereo unspecified) (X34-SPFL-OMe; configuration not given here) | > 100 | 46.5 | > 100 | 44.9 | 97.6 | 63.9 | 55.9 | 49 | > 100 | 56.9 | > 100 |  |  |  |  |  |  |  | 
21 | CCOc1cc(C2SCC(=O)N2c2ccc3c(c2)Oc2c(Cl)c4c(c(Cl)c2=N3)Oc2cc(N3C(=O)CSC3c3ccc(O)c(OCC)c3)ccc2N=4)ccc1O (stereo unspecified) | > 100 | > 100 | > 100 | 66.2 | 47.6 | 59.1 | > 100 | 63.8 | > 100 | > 100 | > 100 |  |  |  |  |  |  |  | 
22 | COc1ccc(C(=O)CCN(C)C)c2ccccc12 | > 63.7 | > 100 | 34 | > 100 | 51.4 | 41.9 | 35.1 | 98.3 | 49.5 | 27.4 | 49.3 |  |  |  |  |  |  |  | 
23 | Cn1c2ccccc2c2c3c(c4c5ccccc5n(C5OC(CO)C(O)C(O)C5O)c4c21)C(=O)OC3=O (stereo unspecified) | > 100 | > 100 | > 100 | > 100 | > 100 | > 100 | > 100 | > 100 | > 100 | > 100 | > 100 |  |  |  |  |  |  |  | 
24 | CC[C@@H]1CSC(/C=C/C2OC3OC(C)(C)OC3C3OC(C)(C)OC23)=N1 (stereo partly specified) | 33.3 | 46.6 | 26 | 35.9 | 23.1 | 19.2 | 26.4 | 22.9 | 16.8 | 15.9 | 11.2 |  |  |  |  |  |  |  | 
25 | COc1cc(NC(C)=O)ccc1C(=O)N/N=C/c1ccco1 | > 100 | > 100 | > 100 |  | > 100 | > 100 |  | > 100 | > 100 | > 100 | > 100 |  |  |  |  |  |  |  | 
26 | OCC(O)COCn1cc(Cn2ncc3c(NCc4ccccc4)ncnc32)nn1 (stereo unspecified) | > 100 | > 100 | > 100 | > 100 | > 100 | > 100 | > 100 | > 100 | > 100 | > 100 | > 100 |  |  |  |  |  |  |  | 
27 | CC(C)CNCCc1ccccn1 | > 100 | > 100 | > 100 | > 100 | > 100 | > 100 | > 100 | > 100 |  | > 100 | > 100 |  |  |  |  |  |  |  | 
28 | Nc1ncnc2c1ncn2[C@@H]1O[C@H](COP(=O)(O)OP(=O)(O)OC[C@H]2O[C@@H](OCCCO)[C@H](O)[C@@H]2O)[C@@H](O)[C@H]1O | > 100 | > 100 | > 100 | > 100 | > 100 | > 100 | > 100 | > 100 | > 100 | > 100 | > 100 |  |  |  |  |  |  |  | 
29 | CC1(O)C2(c3ccccc3)CCC[N+]1(C)CC2 (stereo unspecified) | > 100 | > 100 | > 100 | > 100 | > 100 | > 100 | > 100 | > 100 | > 100 |  | > 100 |  |  |  |  |  |  |  | 
30 | CC(C)C1=CC2=CC[C@@H]3[C@](C)(CCC[C@@]3(C)C(=O)O)[C@H]2CC1 | > 100 | > 100 |  | > 100 | > 89.9 | > 84.6 | > 100 | > 100 |  |  | > 100 |  |  |  |  |  |  |  | 
31 | COc1ccc(C(=O)c2nc3ccccc3nc2N2CCN(c3ccccc3)CC2)cc1OC | > 100 | > 100 | > 100 |  | > 100 | > 100 | > 100 | > 100 | > 100 | > 100 | > 100 |  |  |  |  |  |  |  | 
32 | C1=CC=C2NCCc3cccc(c3)CCNC3=CC=CC=CC3=NCCCCCCN=C2C=C1 | 47.3 | 49.6 |  | 86 | 48.3 | 54 | > 100 | 29.8 |  |  | 80.7 |  |  |  |  |  |  |  | 
33 | O=C1NC(=NCc2ccc(F)cc2)N/C1=C\c1ccccc1Cl | 53.9 | 35.8 | 38.8 | 69.3 |  | 24.9 | 30.4 | 31.6 | 29.4 | 24 | 31.1 |  |  |  |  |  |  |  | 
34 | CCCCC(=O)c1c(O)ccc2c(C)cc(=O)oc12 | > 100 | > 100 | > 100 | > 100 | > 100 | > 100 | > 100 | > 100 | 51.4 | > 100 | > 100 |  |  |  |  |  |  |  | 

Reference: PubChem BioAssay (NCI)
